According to patent US11415493B2, “Detection of cells in a liquid sample” (DELTA INSTRUMENTS B.V., priority 2016, dated 2022):
“Also recorded” adds a separate entry of the source.

What was measured:
bacteria in raw milk [1] = experiment: IBC in 24 h old raw bulk milk, staining composition with Savinase, flow cytometer; type: cell-based; conditions: 68° C., 1 minute
Description: To verify this method with Savinase®, locally obtained raw bulk tank milk from a dairy plant was collected. […] An amount of 200 μl bacterial culture is added to a 45 ml volume of 24 h old raw bulk milk and kept at 4° C. until analyzed. The staining composition comprising GelGreenTM as the nucleic acid dye was prepared in the same way as in Example 5, except that the Alcalase® protease was replaced by 0.12 KNPU/ml Savinase® […] protease (from Novozymes). 200 μl of unheated raw milk is diluted with the 1800 μl staining composition and incubated at approximately 68° C. for 1 minute; the sample is sonicated for 5 seconds at 40 kHz in the before and after the incubation step and analyzed on the flow cytometer; the fluorescent signals from the bacteria were detected and a count per unit volume was determined. Traditional plate counts were used to obtain a bacterial reference count. As used herein, the term “traditional plate counts”, refers to Petrifilm Aerobic Count Plates (AOAC Official Method 986.33). The LOG of individual bacterial count (IBC)/ml from 24 h raw milk in the flow cytometer is 5.61, the LOG of CFU/ml petrifilm is 4.83. The LOG of IBC from 24 h raw milk spiked with E. coli LOG in the flow cytometer is 6.48. The LOG of CFU/ml petrifilm is 6.69.

E. coli = experiment: Staining E. coli culture with different nucleic acid dyes, flow cytometer counts (FL1FL2 region); type: cell-based, Escherichia coli
Description: First, an experiment was performed to confirm that bacterial counts obtained on the flow cytometer using GelGreen™ did correlate with traditional plate counts. For this, the Petrifilm method was selected (Standard Methods for Examination of Dairy Products 17th Edition 2004. Edited by H. M. Wehr and J. R. Frank. American Public Health Association, 800 I Street, NW, Washington D.C. 200001. Chapter 6.040), rather than a poured agar plate method, because of ease of use. Escherichia coil (E. coli) cultures were grown at 36° C. in Trypticase Soy Broth (TSB) in a culture tube. A staining composition was prepared as follows: The nucleic acid dye GelGreen™ (from Biotium) was diluted to 1× from the 10,000× commercially available stock, into Tris-buffered saline (100 mM Trizma base, 100 mM Trizma HCl, 150 mM NaCl, pH 8.5), which was preheated to 50° C. The used dilution of 1:10,000 of the GelGreen™ is in accordance with the manufacturer's recommendation for using GelGreen™ for the purpose it was intended for, namely staining DNA in an agarose gel. This is the dilution of GelGreen™ used in all the examples herein. The E. coli culture was removed from the 36° C. incubator and a small volume was diluted 1:100 into the preheated staining composition and incubated for approximately 4.5 min at 50° C. The stained E. coli was analyzed on the flow cytometer and the FL1 (Bandpass 531 nm (519-551)) and FL2 (Long pass >550 nm) fluorescence channels were used to identify the stained bacteria (FIGS. 1A and 1C). A rectangular region was defined around the positively stained cells identified as live cells in the FL1 versus FL2 2-dimensional correlation plot (FIG. 1B). A count per mL of the E. coli was obtained from the flow cytometry analysis. The E. coli culture was then diluted in TSB to obtain 3 different concentrations (1:10, 1:100 and 1:1000, respectively). The E. coli cultures were kept at 4° C. to minimize further growth until analysis. Each dilution of E. coli was stained with the GelGreen™ reagent, analyzed on the flow cytometer and counts for each dilution were obtained. Each E. coli culture was also appropriately diluted in Butterfield's PBS and 1 mL of the appropriately diluted culture was plated on Petrifilms in duplicate. The Petrifilms were placed in a 30° C. incubator, removed after 48 hrs and the colonies on each Petrifilm were counted using an automated colony counter. An average CFU/mL for each E. coli dilution was obtained. The Log of the flow cytometer bacterial counts using GelGreen™ was plotted versus the Log CFU counts from the Petrifilm (FIG. 2).
To show where the bacteria in the FL1 and FL2 signal plots can be expected, bacteria were first counted in the staining composition without adding any milk. A culture of E. coli were grown at 36° C. in Trypticase Soy Broth (TSB) in a culture tube. The nucleic acid dye GelGreen™ was diluted into Tris-buffered saline, at approximately pH 8.5, which was preheated to 50° C. The E. coli culture was removed from the 36° C. incubator and a small volume was diluted 1:100 into the preheated staining composition and incubated for approximately 4.5 min at 50° C. The stained E. coli was analyzed on the flow cytometer and the FL1 and FL2 fluorescence channels were used to identify the stained bacteria (FIG. 3A).
A culture of E. coli was grown at 36° C. in Trypticase Soy Broth (TSB), stained with GelGreen™ and counted on the flow cytometer (FIG. 5) as described in example 2. The E. coli culture was then kept at 4° C. until stained with other nucleic acid dyes. The nucleic acid dyes TOTO®-1 and SYBR® Safe (both from Thermo Fisher Scientific) were selected as alternatives. […] Both dyes have similar spectral properties to GelGreen™ and were diluted in Tris-buffered saline using the same dilution factor as GelGreen™. […]

[2] = test system: Listeria monocytogenes, Staphylococcus aureus, Bacillus cereus, Pseudomonas aeruginosa, Escherichia coil; experiment: Validation of flow cytometry counts versus Petrifilm CFU in raw milk spiked with gram positive and gram negative bacteria; type: cell-based; conditions: raw milk with individual bacterial cultures
Excerpt: A selection of gram negative and gram positive bacteria were chosen to be placed into raw milk and processed and analyzed following the GelGreen™ raw milk treatment staining protocol as disclosed in example 2. The gram positive organisms selected were Listeria monocytogenes (Lm), Staphylococcus aureus (Sa), and Bacillus cereus (Bc). The gram negative organisms selected were Pseudomonas aeruginosa (Pa) and Escherichia coil (Ec). Different concentrations of each culture were placed into a sample of raw milk and kept at 4° C. until processed. Each sample of raw milk with an individual bacterial culture was processed and analyzed following the GelGreen™ protocol as described in example 2. Each sample of raw milk with an individual bacterial culture was appropriately diluted in Butterfield's PBS and 1 mL was plated on Petrifilms in duplicate and CFU/mL were obtained. The resulting Log FCM counts per mL were plotted against the Log Petrifilm CFU per mL.

bacteria in raw milk [3] = experiment: IBC in raw milk samples at different pH settings, flow cytometer; type: cell-based

CN(C)c1ccc2cc3ccc(N(C)C)cc3[n+](CCCCCC(=O)NCCCOCCOCCOCCCNC(=O)CCCCC[n+]3c4cc(N(C)C)ccc4cc4ccc(N(C)C)cc43)c2c1.[I-].[I-] [GelGreen™]
LOG of IBC in the flow cytometer (bacteria in raw milk [1]; 24 h raw milk spiked with E. coli): 6.48 | LOG of individual bacterial count (IBC)/ml in the flow cytometer (bacteria in raw milk [1]; 24 h raw milk): 5.61 | staining of E. coli (E. coli; NaCl solution (saline), 50° C.): minimal staining | staining of E. coli (E. coli; NaCl solution (saline), room temperature (23° C.)): does not stain E. coli; also recorded: did not stain bacterial cells | staining of E. coli (E. coli; Tris-buffered saline pH 8.5, 50° C., approximately 4.5 min): stains essentially all bacterial cells | staining of E. coli (E. coli; Tris-buffered saline pH 8.5, room temperature (23° C.)): does not stain E. coli; also recorded: did not stain bacterial cells | relationship of Log FCM counts per mL versus Log Petrifilm CFU per mL [2]: overall linear relationship | IBC higher compared to the reference method (pH 10.6) (bacteria in raw milk [3]; pH 7.0, fresh milk): more than 1.5 million counts per ml | IBC compared to the reference method (pH 10.6) (bacteria in raw milk [3]; pH 8.7): comparable with the reference method
